Data: patent publication US12187709B2 (Genentech, Inc., priority 2021, dated 2025)

How the values were obtained:
c-Cbl = c-Cbl (Homo sapiens (Human), UniProt P22681); test: C-Cbl LCK Ub TR-FRET assay (C-cbl Lck HTRF); format: biochemical
Description: (§1) 6 μL of detection mixture was added to all wells and briefly centrifuged before incubating for 20 min at room temperature. […] IC50 was generated using no LCK as the low control and DMSO as the high control.

Cbl-b = Cbl-b (Homo sapiens (Human), UniProt Q13191); test: Cbl-b LCK Ub TR-FRET assay (Cbl-b Lck HTRF); format: biochemical; conditions: for IC50: Cbl-b LCK Ub TR-FRET; for fold-selectivity (Cbl-b over C-cbl): ratio C-cbl Lck HTRF IC50 / Cbl-b Lck HTRF IC50
Description: as §1

[1] = molecular target: Human Cbl-b (residues 40-426) (Homo sapiens (Human), UniProt Q13191); test: Cbl-b SPR assay; format: binding; conditions: C-cbl SPR Kd vs Cbl-b SPR Kd
Description: Affinity of binding to Cbl-b and c-Cbl for compounds described herein was assessed by surface plasmon resonance (SPR) according to the following protocol.
A surface capture range of 1300-1500 RU of protein was used for both isoforms.
For SPR measurements, 6 concentrations with 2 fold serial dilution were measured with blanks flanking each series for double referencing. […] SPR sensorgrams were recorded in multi-cycle kinetics format, with a contact time of 60 seconds and a flow rate of 40 μl/min, the dissociation time was varied between 120-1200 seconds aiming for 4-5 half-lives of the measured interaction.
Kinetic and affinity parameters were extracted from the multicycle kinetics data fitting to a 1:1 binding model using the Biacore™ Incyte evaluation software (Cytiva).
Chaser assay utilize a single cycle kinetics SPR experiment with a contact time of 120 seconds, a flow rate of 50 μl/min and a dissociation time of 450 seconds. Single cycle kinetics titration utilized an initial blank injection and 5 concentrations with 2 fold serial dilution with a maximum concentration of 500 nM, blanked to a preceding 6 point blank single cycle kinetics injection for double referencing.
The kd is measured independently by determining the percentage unoccupied compound binding site over time by measuring the binding of a chaser compound measured by SPR.
Chaser binding was measured by a multicycle kinetics SPR experiment using a contact time of 20 seconds, a flow rate of 30 μl/min, and a dissociation time of 120 seconds. […] The % compound bound at a given time was determined by comparison to a single injection of chaser preceding the single cycle kinetics titration defined below. % Compound Bound=(1−(RUT/RUT0))*100
The % compound bound is plotted against time in seconds and fit to a single exponential, where the exponent represents the kd of the compound-protein complex. The single cycle kinetics experiment of the compound is then fit with a fixed kd determined using the chaser.

Chain of Cbl-b (Q13191 40-426): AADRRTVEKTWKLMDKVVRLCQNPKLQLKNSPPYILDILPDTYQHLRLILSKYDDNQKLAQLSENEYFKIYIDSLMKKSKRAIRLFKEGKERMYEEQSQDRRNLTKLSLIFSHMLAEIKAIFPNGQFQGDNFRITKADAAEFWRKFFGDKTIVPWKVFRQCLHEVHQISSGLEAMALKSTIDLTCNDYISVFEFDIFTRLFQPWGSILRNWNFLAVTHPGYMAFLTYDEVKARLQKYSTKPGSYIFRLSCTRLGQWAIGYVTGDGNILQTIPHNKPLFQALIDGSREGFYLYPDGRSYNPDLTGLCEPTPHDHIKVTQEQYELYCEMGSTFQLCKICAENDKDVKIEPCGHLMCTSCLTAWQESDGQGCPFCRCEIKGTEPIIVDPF
Chain of Human Cbl-b (residues 40-426) (Q13191 40-426): as above
Chain of c-Cbl (P22681 47-435): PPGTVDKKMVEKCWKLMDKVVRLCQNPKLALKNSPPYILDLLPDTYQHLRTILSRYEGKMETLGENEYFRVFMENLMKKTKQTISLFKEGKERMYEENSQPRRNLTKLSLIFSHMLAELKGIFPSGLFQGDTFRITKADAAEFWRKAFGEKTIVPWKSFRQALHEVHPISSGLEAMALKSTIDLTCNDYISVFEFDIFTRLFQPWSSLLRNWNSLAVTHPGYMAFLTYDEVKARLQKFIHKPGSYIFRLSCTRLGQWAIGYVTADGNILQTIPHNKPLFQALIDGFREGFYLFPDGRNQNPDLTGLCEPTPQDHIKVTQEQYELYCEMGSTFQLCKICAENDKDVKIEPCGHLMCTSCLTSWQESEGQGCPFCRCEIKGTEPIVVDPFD

IC50 (c-Cbl) [nM] | IC50 (Cbl-b) [nM] | fold-selectivity (Cbl-b over C-cbl) (Cbl-b) | Fold of selectivity [1] [×] | IC50 (Cbl-b; Example 121) [nM] | Compound
14100 | 8300 | (1.7x) |  |  | Cn1cnnc1[C@](O)(c1cccc(N2Cc3c(cc(CNC4(C)CCC4)cc3C(F)(F)F)C2=O)c1)C1CCC1 (single isomer, unassigned) [Compound 1]
24 | 12 | (2.0x) |  |  | CC(C)[C@H]1CN(C)CCN1Cc1cc2c(c(C(F)(F)F)c1)CN(c1cccc([C@@H](c3nncn3C)C3COC3)c1)C2=O (single isomer, unassigned) [Compound 10]
≥ 20000 | 5100 | (3.9x) |  |  | CC(C)[C@H]1CN(C)CCN1Cc1cc2c(c(C(F)(F)F)c1)CN(c1cccc([C@H](c3nncn3C)C3COC3)c1)C2=O (single isomer, unassigned) [Compound 11]
20000 | 3800 | (5.3x) |  |  | Cn1cnnc1[C@H](c1cccc(N2Cc3c(cc(CNC4(C)CCC4)cc3C(F)(F)F)C2=O)c1)N1CCC1 (single isomer, unassigned) [Compound 32]
720 | 150 | (4.8x) |  |  | Cn1cnnc1[C@@H](c1cccc(N2Cc3c(cc(CNC4(C)CCC4)cc3C(F)(F)F)C2=O)c1)N1CCC1 (single isomer, unassigned) [Compound 33]
9.9 | 6.6 | (1.5x) |  |  | C[C@H](NC1CCC1)c1cc2c(c(C(F)(F)F)c1)CN(c1cccc(C3(c4nncn4C)CC(F)(F)C3)c1)C2=O (single isomer, unassigned) [Compound 37]
32 | 11 | (2.9x) |  |  | C[C@@H](NC1CCC1)c1cc2c(c(C(F)(F)F)c1)CN(c1cccc(C3(c4nncn4C)CC(F)(F)C3)c1)C2=O (single isomer, unassigned) [Compound 38]
 | ≥ 20000 | 1.0x |  |  | CO[C@@](c1cccc(N2Cc3c(cc(CNC4(C)CCC4)cc3C(F)(F)F)C2=O)c1)(c1nncn1C)C1CCC1 (single isomer, unassigned) [Compound 118]
 | ≥ 20000 |  |  |  | Cn1cnnc1[C@@H](C[C@H]1COCCO1)c1cccc(N2Cc3c(cc(CNC4(C)CCC4)cc3C(F)(F)F)C2=O)c1 (single isomer, unassigned) [Compound 295, 2-(3-((S)-2-((S)-1,4-dioxan-2-yl)-1-(4-methyl-4H-1,2,4-triazol-3-yl)ethyl)phenyl)-6-(((1-methylcyclobutyl)amino)methyl)-4-(trifluoromethyl)isoindolin-1-one]
 | 55 |  |  |  | Cn1cnnc1[C@H](c1cccc(N2Cc3c(cc(CNC4(C)CCC4)cc3C(F)(F)F)C2=O)c1)[C@H]1C[C@H](C)C1 (single isomer, unassigned) [Compound 376]
 |  |  |  | 570 | CC1(NCc2cc3c(c(C(F)(F)F)c2)CN(c2cccc([C@@H](C4COC4)n4ccnn4)c2)C3=O)CCC1 (single isomer, unassigned) [Compound 436, (R)-6-(((1-methylcyclobutyl)amino)methyl)-2-(3-(oxetan-3-yl(1H-1,2,3-triazol-1-yl)methyl)phenyl)-4-(trifluoromethyl)isoindolin-1-one]
 | 31 | (1.7x) | 3.0 |  | Cn1cnnc1[C@]1(c2cc(NC3CCCCC3)nc(N3Cc4c(cc(CNC5(C)CCC5)cc4C(F)(F)F)C3=O)c2)C[C@@H](C)C1 [Compound 50, 2-(6-(cyclohexylamino)-4-((1r,3r)-3-methyl-1-(4-methyl-4H-1,2,4-triazol-3-yl)cyclobutyl)pyridin-2-yl)-6-(((1-methylcyclobutyl)amino)methyl)-4-(trifluoromethyl)isoindolin-1-one]
 | 38 | (1.6x) |  |  | Cn1cnnc1[C@]1(c2cc(NC3CCCCC3)nc(N3Cc4c(cc(CNC5(C)CCC5)cc4C(F)(F)F)C3=O)c2)C[C@H](C)C1 [Compound 51, 2-(6-(cyclohexylamino)-4-((1s,3s)-3-methyl-1-(4-methyl-4H-1,2,4-triazol-3-yl)cyclobutyl)pyridin-2-yl)-6-(((1-methylcyclobutyl)amino)methyl)-4-(trifluoromethyl)isoindolin-1-one]
 | 7.2 | (1.3x) | 11 |  | Cn1cnnc1[C@]1(c2cc(NC3CCCC3)nc(N3Cc4c(cc(CNC5(C)CCC5)cc4C(F)(F)F)C3=O)c2)C[C@@H](C)C1 [Compound 52, 2-(6-(cyclopentylamino)-4-((1r,3r)-3-methyl-1-(4-methyl-4H-1,2,4-triazol-3-yl)cyclobutyl)pyridin-2-yl)-6-(((1-methylcyclobutyl)amino)methyl)-4-(trifluoromethyl)isoindolin-1-one]
 | 5.7 | (1.1x) | 9.2 |  | Cn1cnnc1[C@]1(c2cc(NC3CCCC3)nc(N3Cc4c(cc(CNC5(C)CCC5)cc4C(F)(F)F)C3=O)c2)C[C@H](C)C1 [Compound 53, 2-(6-(cyclopentylamino)-4-((1s,3s)-3-methyl-1-(4-methyl-4H-1,2,4-triazol-3-yl)cyclobutyl)pyridin-2-yl)-6-(((1-methylcyclobutyl)amino)methyl)-4-(trifluoromethyl)isoindolin-1-one]
 | 8.2 | (1.4x) | 11 |  | Cn1cnnc1[C@]1(c2cc(OC3CCCC3)nc(N3Cc4c(cc(CNC5(C)CCC5)cc4C(F)(F)F)C3=O)c2)C[C@H](C)C1 [Compound 54, 2-(6-(cyclopentyloxy)-4-((1s,3s)-3-methyl-1-(4-methyl-4H-1,2,4-triazol-3-yl)cyclobutyl)pyridin-2-yl)-6-(((1-methylcyclobutyl)amino)methyl)-4-(trifluoromethyl)isoindolin-1-one]
 | 6.7 | (1.4x) |  |  | Cn1cnnc1[C@]1(c2cc(OC3CCCC3)nc(N3Cc4c(cc(CNC5(C)CCC5)cc4C(F)(F)F)C3=O)c2)C[C@@H](C)C1 [Compound 55, 2-(6-(cyclopentyloxy)-4-((1r,3r)-3-methyl-1-(4-methyl-4H-1,2,4-triazol-3-yl)cyclobutyl)pyridin-2-yl)-6-(((1-methylcyclobutyl)amino)methyl)-4-(trifluoromethyl)isoindolin-1-one]
 | 5.5 |  |  |  | CCNc1cc(C2(c3nncn3C)CC(F)(F)C2)cc(N2Cc3c(cc(CNC4(C)CCC4)cc3C(F)(F)F)C2=O)n1 [Compound 62, 2-(4-(3,3-difluoro-1-(4-methyl-4H-1,2,4-triazol-3-yl)cyclobutyl)-6-(ethylamino)pyridin-2-yl)-6-(((1-methylcyclobutyl)amino)methyl)-4-(trifluoromethyl)isoindolin-1-one]
 | ≥ 20000 | 1.0x |  |  | CC(=O)N1CC(c2cccc(N3Cc4c(cc(CNC5(C)CCC5)cc4C(F)(F)F)C3=O)c2)(c2nncn2C)C1 [Compound 112, 2-(3-(1-acetyl-3-(4-methyl-4H-1,2,4-triazol-3-yl)azetidin-3-yl)phenyl)-6-(((1-methylcyclobutyl)amino)methyl)-4-(trifluoromethyl)isoindolin-1-one]

Compound | IC50 (c-Cbl) [nM] | IC50 (Cbl-b) [nM] | fold-selectivity (Cbl-b over C-cbl) (Cbl-b) | Fold of selectivity [1] [×] | IC50 (Cbl-b; Example 121) [nM]
Cn1cnnc1[C@H](c1cccc(N2Cc3c(cc(CNC4(C)CCC4)cc3C(F)(F)F)C2=O)c1)C1CCOCC1.O=CO (single isomer, unassigned) [Compound 291] |  |  | 4.3x | 2.1 | 
